Key:
Assay type in all cases: functional
Rattus norvegicus [1] = test: Tested for stimulus generation in rats trained to discriminate LSD from saline at 4.10 (umol/kg),(number of animals = 10)
Rattus norvegicus [2] = test: Percentage of animals disrupted was determined in groups of LSD trained rat at a dose of 18.46 (umol/kg),(no. of animals=9)
Rattus norvegicus [3] = test: Tested for stimulus generation in rats trained to discriminate +/-MDMA from saline at 17.44i (umol/kg),(number of animals = 11)
Rattus norvegicus [4] = test: Percentage of animals disrupted was determined in groups of LSD trained rat at a dose of 8.21 (umol/kg),(no. of animals = 8)
Rattus norvegicus [5] = test: Hallucinogenic property was determined in groups of LSD trained rats and percentage of animals disrupted was reported at a dose 4.10 (umol/kg),(number of animals = 10)
Rattus norvegicus [6] = test: Percentage of animals disrupted was determined in groups of LSD trained rat at a dose of 16.41 (umol/kg),(no. of animals=11)
Rattus norvegicus [7] = test: Tested for stimulus generation in rats trained to discriminate LSD from saline at a 18.46 (umol/kg),(number of animals = 9)
Rattus norvegicus [8] = test: Percentage of animals disrupted in groups of MDMA trained rats at a dose of 17.44 (umol/kg),(number of animals = 11)
Rattus norvegicus [9] = test: Percentage of animals disrupted in groups of MDMA trained rats at a dose of 4.10 (umol/kg),(number of animals = 8)
Rattus norvegicus [10] = test: Percentage of animals disrupted in groups of MDMA trained rats at a dose of 16.41 (umol/kg),(number of animals = 11)
Rattus norvegicus [11] = test: Percentage of animals disrupted in groups of MDMA trained rats at a dose of 20.51 (umol/kg),(number of animals = 7)
Rattus norvegicus [12] = test: Percentage of animals disrupted in groups of MDMA trained rats at a dose of 8.21 (umol/kg),(number of animals = 9)
Rattus norvegicus [13] = test: Percentage of animals disrupted in groups of MDMA trained rats at a dose of 12.31 (umol/kg),(number of animals = 8)
Rattus norvegicus [14] = test: Tested for stimulus generation in rats trained to discriminate LSD from saline at a dose 8.21 (umol/kg),(number of animals = 8)
Rattus norvegicus [15] = test: Tested for stimulus generation in rats trained to discriminate +/-MDMA from saline at 16.41(.umol/kg),(number of animals = 11)
Rattus norvegicus [16] = test: Tested for stimulus generation in rats trained to discriminate LSD from saline at a dose 16.41(.umol/kg),(number of animals = 11)
Rattus norvegicus [17] = test: Tested for stimulus generation in rats trained to discriminate +/-MDMA from saline at 12.31 (umol/kg),(number of animals = 8)
Rattus norvegicus [18] = test: Percentage of animals disrupted was determined in groups of LSD trained rat at a dose of 6.15 (uM/kg), (no.of animals = 11)
Rattus norvegicus [19] = test: Tested for stimulus generation in rats trained to discriminate +/-MDMA from saline at 4.10 (umol/kg),(number of animals = 8)
Rattus norvegicus [20] = test: Tested for stimulus generation in rats trained to discriminate +/-MDMA from saline at 8.21 (umol/kg),(number of animals = 9)
Rattus norvegicus [21] = test: Tested for stimulus generation in rats trained to discriminate LSD from saline at a dose 6.15 (umol/kg),(number of animals = 11)
Rattus norvegicus [22] = test: Hallucinogenic property was determined in groups of LSD trained rats and percentage of animals disrupted was reported at a dose 4.68 (umol/kg),(number of animals = 10)
Rattus norvegicus [23] = test: Tested for stimulus generation in rats trained to discriminate +/-MDMA from saline at 18.72 (umol/kg),(number of animals = 5)
Rattus norvegicus [24] = test: Hallucinogenic property was determined in groups of LSD trained rats and percentage of animals disrupted was reported at 2.34 (umol/kg),(number of animals = 13)
Rattus norvegicus [25] = test: Hallucinogenic property was determined in groups of MDMA trained rats and percentage of animals disrupted was reported at 18.72 (umol/kg),(number of animals = 5)
Rattus norvegicus [26] = test: Hallucinogenic property was determined in groups of LSD trained rats and percentage of animals disrupted was reported at a dose 18.72 (umol/kg),(number of animals = 5)
Rattus norvegicus [27] = test: Tested for stimulus generation in rats trained to discriminate +/-MDMA from saline at 1.17 (umol/kg), (number of animals = 6)
Rattus norvegicus [28] = test: Tested for stimulus generation in rats trained to discriminate LSD from saline at a dose 9.36 (umol/kg), (number of animals = 10)
Rattus norvegicus [29] = test: Hallucinogenic property was determined in groups of LSD trained rats and percentage of animals disrupted was reported at a dose 9.36 (umol/kg),(number of animals = 10)
Rattus norvegicus [30] = test: Hallucinogenic property was determined in groups of MDMA trained rats and percentage of animals disrupted was reported at a dose 1.17 (umol/kg), (number of animals =6)
Rattus norvegicus [31] = test: Tested for stimulus generation in rats trained to discriminate LSD from saline at a dose 2.34 (umol/kg),(number of animals = 13)
Rattus norvegicus [32] = test: Tested for stimulus generation in rats trained to discriminate +/-MDMA from saline at 9.36 (umol/kg), (number of animals = 9)
Rattus norvegicus [33] = test: Hallucinogenic property was determined in groups of MDMA trained rats and percentage of animals disrupted was reported at 28.08 (umol/kg),(number of animals = 4)
Rattus norvegicus [34] = test: Tested for stimulus generation in rats trained to discriminate LSD from saline at a dose 1.17 (umol/kg),(number of animals = 10)
Rattus norvegicus [35] = test: Hallucinogenic property was determined in groups of MDMA trained rats and percentage of animals disrupted was reported at a dose 9.36 (umol/kg), (number of animals = 9)
Rattus norvegicus [36] = test: Hallucinogenic property was determined in groups of LSD trained rats and percentage of animals disrupted was reported at a dose 1.17 (umol/kg),(number of animals = 10)
Rattus norvegicus [37] = test: Tested for stimulus generation in rats trained to discriminate +/-MDMA from saline at 2.34 (umol/kg), (number of animals = 8)
Rattus norvegicus [38] = test: Tested for stimulus generation in rats trained to discriminate LSD from saline at a dose 4.68 (umol/kg),(number of animals = 10)
Rattus norvegicus [39] = test: Hallucinogenic property was determined in groups of MDMA trained rats and percentage of animals disrupted was reported at a dose 2.34 (umol/kg), (number of animals = 8)
Rattus norvegicus [40] = test: Tested for stimulus generation in rats trained to discriminate +/-MDMA from saline at 4.68 (umol/kg), (number of animals = 10)
Rattus norvegicus [41] = test: Hallucinogenic property was determined in groups of MDMA trained rats and percentage of animals disrupted was reported at a dose 4.68 (umol/kg), (number of animals = 10)
Rattus norvegicus [42] = test: Tested for disruption in more than 50% rats trained to discriminate LSD from saline at a dose 18.72 (umol/kg) (no. of animals =5)

`COc1cc(C)c(OC)c2c1CC(N)C2` (configuration not stated) showed an SDL (Rattus norvegicus [1]) of 20%, a D (Rattus norvegicus [2]) of 0% and an SDL (Rattus norvegicus [3]) of 50%. For the same molecule, the D (Rattus norvegicus [4]) was 0%, the D (Rattus norvegicus [5]) was 0% and the D (Rattus norvegicus [6]) was 27%. The SDL (Rattus norvegicus [7]) was 89%, the D (Rattus norvegicus [8]) was 27% and the D (Rattus norvegicus [9]) was 0%. The D (Rattus norvegicus [10]) was 27%, the D (Rattus norvegicus [11]) was 71% and the D (Rattus norvegicus [12]) was 11%. The D (Rattus norvegicus [13]) was 0%, the SDL (Rattus norvegicus [14]) was 38% and the SDL (Rattus norvegicus [15]) was 75%. For the same molecule, the SDL (Rattus norvegicus [16]) was 63%, the SDL (Rattus norvegicus [17]) was 25% and the D (Rattus norvegicus [18]) was 27%. It also gave an SDL (Rattus norvegicus [19]) of 13%, an SDL (Rattus norvegicus [20]) of 38% and an SDL (Rattus norvegicus [21]) of 38%.

`NC1Cc2ccc3c(c2C1)OCO3` (configuration not stated) showed a D (Rattus norvegicus [22]) of 20%, an SDL (Rattus norvegicus [23]) of 0% and a D (Rattus norvegicus [24]) of 44%. The D (Rattus norvegicus [25]) was 0%, the D (Rattus norvegicus [26]) was 100% and the SDL (Rattus norvegicus [27]) was 0%. It also gave an SDL (Rattus norvegicus [28]) of 25%, a D (Rattus norvegicus [29]) of 20% and a D (Rattus norvegicus [30]) of 0%. The SDL (Rattus norvegicus [31]) was 25%, the SDL (Rattus norvegicus [32]) was 25% and the D (Rattus norvegicus [33]) was 50%. It also gave an SDL (Rattus norvegicus [34]) of 38%, a D (Rattus norvegicus [35]) of 11% and a D (Rattus norvegicus [36]) of 20%. For the same molecule, the SDL (Rattus norvegicus [37]) was 29%, the SDL (Rattus norvegicus [38]) was 13% and the D (Rattus norvegicus [39]) was 13%. For the same molecule, the SDL (Rattus norvegicus [40]) was 13%, the D (Rattus norvegicus [41]) was 20% and the SDL (Rattus norvegicus [42]) was 0%.

From ChEMBL document CHEMBL1125092, “Nonneurotoxic tetralin and indan analogues of 3,4-(methylenedioxy)amphetamine (MDA)” (J Med Chem, 1990)
